US20110039762A1, “TARGETED ANTIMICROBIAL MOIETIES” (C3 JIAN, INC., priority 2009, published 2011)
Entries after “also recorded” stand apart in the source; their conditions may differ.

How the values were obtained:
S. epidermidis = test: Kill or inhibit growth/proliferation; morphology, biofilm and growth disruption (Tables 5, 6); assay type: cell-based, Staphylococcus epidermidis; set-up: key: A: Peptide aggregates; B: Less hyphal formation; Clumps; Diffuse clumps and small polyps; F: Diffuse growth; H: Thin; I: Growth inhibition; Microcolony formation; Rippled; Small polyps; Thick; W: Halo formation on top, microlonies on bottom; further: test concentration or dose not given here
[1] = tested on: microorganisms (e.g., bacteria, yeasts, fungi); test: Targeting peptide binding to target microorganisms (Table 3); settings: preferably 1x PBS
microorganisms = test: Peptides having multiple activities (targeting/binding, antimicrobial, growth or phenotype altering)
Excerpt: In certain embodiments, peptides described herein can have multiple activities. Thus for example, a peptide can have both binding/targeting activity and antimicrobial activity. Such peptides can be used, e.g., in a chimeric construct, for any or all of these properties. Thus, for example, a peptide designated “B” in Table 8 can be used as a targeting peptide. If it is also designated G or M it can also be used for antimicrobial activity.

MRSA = test: Kill or inhibit growth/proliferation; morphology, biofilm and growth disruption (Tables 5, 6); assay type: cell-based, Methicillin-resistant Staphylococcus aureus; set-up: key: A: Peptide aggregates; B: Less hyphal formation; Clumps; Diffuse clumps and small polyps; F: Diffuse growth; H: Thin; I: Growth inhibition; Microcolony formation; Rippled; Small polyps; Thick; W: Halo formation on top, microlonies on bottom; further: test concentration or dose not given here
S. pneumoniae = test: as above; assay type: cell-based, Streptococcus pneumoniae; set-up: key: A: Peptide aggregates; B: Less hyphal formation; Clumps; Diffuse clumps and small polyps; F: Diffuse growth; H: Thin; I: Growth inhibition; Microcolony formation; Rippled; Small polyps; Thick; W: Halo formation on top, microlonies on bottom
[2] = microorganism the targeting peptide binds, binding in aqueous buffers varied by peptide solubility
[3] = microorganism(s) the targeting peptide binds, binding in aqueous buffers depending on peptide solubility
[4] = microorganism(s) the targeting peptide binds, peptide binding conducted in aqueous buffers varied by peptide solubility
Wherever Organism, effect (morphology, biofilm and growth disruption) is given: test concentration or dose not given here.
Wherever Organism, effect is given: test concentration or dose not given here.

Row | Substance | Organism, effect (S. epidermidis) | Activities (microorganisms) | Organism, effect (MRSA) | Target(s) [1, 3] | also measured
1 | PF-009: peptide having multiple activities (chain 1 SKKYNHILNQENR; chain 2 SKKYNHILNQENR; Peptide with targeting and/or antimicrobial activity) | S. epidermidis (S) | G B | – | – | Target(s) [1, 2]: M. luteus; also recorded: P. mirabilis; also recorded: C. albicans
2 | PF-024: peptide having multiple activities (chain 1 DLRKAK; chain 2 DLRKAK; Peptide with targeting and/or antimicrobial activity) | S. epidermidis (D) | G B | MRSA (M) | – | Target(s) [1, 2]: M. luteus and C. albicans and MRSA and E. faecalis and C. jeikeium
3 | PF-027: peptide having multiple activities (chain 1 HNARKYLEFISQKIDGDKLTKEDSL; chain 2 HNARKYLEFISQKIDGDKLTKEDSL; Peptide with targeting and/or antimicrobial activity) | S. epidermidis (D) | G B | MRSA (M) | – | Target(s) [1, 2]: M. luteus and MRSA and E. faecalis and C. jejuni
4 | PF-034: peptide having multiple activities (chain 1 EPKKKHFPKMESASSEP; chain 2 EPKKKHFPKMESASSEP; Peptide with targeting and/or antimicrobial activity) | S. epidermidis (A) | G B | – | – | Target(s) [1, 2]: M. luteus
5 | PF-041: peptide having multiple activities (chain 1 ELLVILPGFI; chain 2 ELLVILPGFI; Peptide with targeting and/or antimicrobial activity) | S. epidermidis (R) | G B | MRSA (M) | – | Target(s) [1, 2]: MRSA
6 | PF-064: peptide having multiple activities (chain 1 DYYGKE; chain 2 DYYGKE; Peptide with targeting and/or antimicrobial activity) | S. epidermidis (D) | G B | MRSA (M) | – | Target(s) [1, 2]: E. coli
7 | PF-074: peptide having multiple activities (RDIHPIYFMTKD; Peptide with targeting and/or antimicrobial activity) | S. epidermidis (D) | G B | MRSA (M) | S. epidermidis and M. luteus and MRSA | –
8 | PF-123: peptide having multiple activities (TTRPQVAEDRQLDDALKETFPASDPISP; Peptide with targeting and/or antimicrobial activity) | S. epidermidis (M) | G B | – | M. luteus; also recorded: E. coli | –
9 | PF-157: peptide having multiple activities (HTAVVWLAGVSGCVALSHCEPA; Peptide with targeting and/or antimicrobial activity) | S. epidermidis (M) | G B | – | – | –
10 | PF-180: peptide having multiple activities (SGLGDLGFSSEAK; Peptide with targeting and/or antimicrobial activity) | S. epidermidis (C) | G B | – | S. epidermidis and M. luteus and P. aeruginosa and C. albicans and MRSA and E. faecalis and C. jejuni and M. smegmatis | –
11 | PF-192: peptide having multiple activities (VEEDEAPPPHY; Peptide with targeting and/or antimicrobial activity) | S. epidermidis (D) | G B | – | S. epidermidis; also recorded: M. luteus; also recorded: P. aeruginosa; also recorded: C. albicans; also recorded: E. faecalis; also recorded: C. jeikeium | –
12 | PF-233: peptide having multiple activities (DANAMARTTIAIVYILALIALTISYSL; Peptide with targeting and/or antimicrobial activity) | S. epidermidis (C) | G B | – | S. epidermidis; also recorded: M. luteus; also recorded: P. aeruginosa; also recorded: A. baumannii | –
13 | PF-273: peptide having multiple activities (LVGALLIFVALIYMVLKGNADKN; Peptide with targeting and/or antimicrobial activity) | S. epidermidis (C) | G B | – | S. epidermidis; also recorded: M. luteus; also recorded: P. aeruginosa; also recorded: A. baumannii | –
14 | PF-290 (MVHDMTNGTLIIVKH; Peptide with targeting and/or antimicrobial activity) | S. epidermidis (C) | – | – | – | –
15 | PF-293 (YDPLK; Peptide with targeting and/or antimicrobial activity) | S. epidermidis (C) | – | – | – | –
16 | PF-294: peptide having multiple activities (DFLVNFLWFKGELNWGKKRYK; Peptide with targeting and/or antimicrobial activity) | S. epidermidis (C) | G B | – | S. epidermidis; also recorded: C. difficile | –
17 | PF-310 (GVALIGTILVPLLSGLFG; Peptide with targeting and/or antimicrobial activity) | S. epidermidis (C) | – | – | – | –
18 | PF-313: peptide having multiple activities (YITSHKNARAIIKKFERDEILEEVITHYLNRK; Peptide with targeting and/or antimicrobial activity) | S. epidermidis (C) | G B | – | S. epidermidis; also recorded: C. difficile | –
19 | PF-373: peptide having multiple activities (chain 1 HFYLLFER; chain 2 HFYLLFER; Peptide with targeting and/or antimicrobial activity) | S. epidermidis (M) | G B | MRSA (M) | S. epidermidis and E. coli and P. aeruginosa and C. albicans and MRSA and E. faecalis and C. jejuni | –
20 | PF-378: peptide having multiple activities (chain 1 ESAKSNLNFLMQEEWALFLLL; chain 2 ESAKSNLNFLMQEEWALFLLL; Peptide with targeting and/or antimicrobial activity) | S. epidermidis (M) | G B | MRSA (M) | B. subtilis; also recorded: B. fragilis; also recorded: E. coli; also recorded: P. aeruginosa; also recorded: C. jeikeium | –
21 | PF-397: peptide having multiple activities (VEDLMEDLNA; Peptide with targeting and/or antimicrobial activity) | S. epidermidis (C) | G B | – | – | Target(s) [1, 4]: S. epidermidis and MRSA and S. pneumoniae and E. faecalis and C. jejuni
22 | PF-404: peptide having multiple activities (VLYFQATVV; Peptide with targeting and/or antimicrobial activity) | S. epidermidis (M) | G B | MRSA (M) | – | Target(s) [1, 4]: S. epidermidis; also recorded: E. coli; also recorded: P. aeruginosa; also recorded: E. faecalis; also recorded: C. jeikeium; also recorded: C. jejuni
23 | PF-406: peptide having multiple activities (YLEMNADYLSNMDIFDELWEKYLENNK; Peptide with targeting and/or antimicrobial activity) | S. epidermidis (C) | G B | MRSA (M) | – | Target(s) [1, 4]: E. coli; also recorded: C. jejuni
24 | PF-408: peptide having multiple activities (YCVPLGNMGNMNNKIW; Peptide with targeting and/or antimicrobial activity) | S. epidermidis (M) | G B | MRSA (M) | – | Target(s) [1, 4]: S. epidermidis and E. coli and P. aeruginosa and MRSA and E. faecalis and C. jeikeium and C. jejuni
25 | PF-417: peptide having multiple activities (DSYFRS; Peptide with targeting and/or antimicrobial activity) | S. epidermidis (M) | G B | MRSA (M) | – | Organism, effect (S. pneumoniae): S. pneumoniae (M); Target(s) [1, 4]: S. epidermidis; also recorded: C. jeikeium; also recorded: C. jejuni
26 | PF-683 (chain 1 LWPVA; chain 2 LWPVA; Peptide with targeting and/or antimicrobial activity) | – | – | – | – | Organism, effect (morphology, biofilm and growth disruption) (S. epidermidis): S. epidermidis (R); Organism, effect (morphology, biofilm and growth disruption) (MRSA): MRSA (R); Organism, effect (morphology, biofilm and growth disruption) (S. pneumoniae): S. pneumoniae (H); Target(s) (microorganisms bound by the targeting peptide) ([1]; peptide binding in aqueous buffers varied by peptide solubility): Mycobacteria spp
